Experimental findings from patent US20240290133A1, “HERBAL COMPOSITION FOR BREAST CANCER PREVENTION” (priority 2021, published 2024) are described below.

“And” between values parts separate entries of the source, which are not always exact repeats. Equal entries are not always repeated.

In the data set the test system is MCF-7 breast cancer cells. Description: MCF-7 cell viability (PrestoBlue Cell Viability Reagent, fluorescence). The data set is classed as cell-based, human. The note with it: individual ingredients, 2 mg/0.2 ml, 24 h, single replicate wells (Table 3). On the procedure:
In order to assess this activity, a well-established line of breast cancer cells used in cancer research was selected. MCF-7 is a widely studied cancer cell line derived from breast adenocarcinoma, it was proven to be a suitable model cell line for breast cancer investigations worldwide, including those regarding anticancer drugs.
The cells were cultured with growth medium and seeded in two 96 well plates incubated at 37 Celsius. The HCBCP solution was prepared by dissolving the powder in DPBS as per Table 1, below.
The obtained solutions were sterilized by 0.22-micron filtration.
An amount of 0.2 ml was applied in each test tube providing 2 mg of HCBCP. […]
After incubation period of 24 and 48 hours, cell viability was measured using PrestoBlue™ Cell Viability Reagent, according to manufacturer instructions.
Fluorescence was detected at excitation wavelength of 560 nm and an emission of 590 nm, using TECAN SPARK 10M microplate reader, at 24 and 48 hours after application. The fluorescence data is expressed as percentage of cell viability (%) compared to vehicle control.
Percentage of cell viability was calculated using the following formula: [(fluorescence of treated cells−mean background fluorescence)/(fluorescence of cells with vehicle control−mean background fluorescence)]×100, at 24 and 48 hours after application. […]

On to `O=c1c(O)c(-c2ccc(O)c(O)c2)oc2cc(O)cc(O)c12` [BF 2 Q, Quercetin], for which the FU-background was 16881.00 FU and 16665.00 FU and 15291.00 FU and 14944.00 FU; the “Fluorescence units (FU)” value was 22892 FU and 22876 FU and 21302 FU.
